Results published in the NIST ThermoML archive (doi:10.1016/j.jct.2004.12.014).
± gives the expanded uncertainty stated by the source.

Tests used:
[1] = excess molar enthalpy (molar enthalpy of mixing); xn = mol fraction of the nth substance listed; details: 318.15 K, 101 kPa, Liquid
[2] = xn = mol fraction of the nth substance listed; details: 318.15 K, 101 kPa, Liquid

CCCCCOC(=O)CC [pentyl propanoate] + CCCCCCCCCCCCC
Details | excess molar enthalpy [kcal/mol] | excess molar volume [m3/mol]
[1], x1 = 0.0691 | 0.0578 ± 0.00129 | –
[1], x1 = 0.1382 | 0.105 ± 0.00201 | –
[1], x1 = 0.2136 | 0.151 ± 0.00263 | –
[1], x1 = 0.2861 | 0.185 ± 0.00335 | –
[1], x1 = 0.3564 | 0.209 ± 0.00359 | –
[1], x1 = 0.4222 | 0.224 ± 0.00382 | –
[1], x1 = 0.4822 | 0.229 ± 0.00382 | –
[1], x1 = 0.5355 | 0.228 ± 0.00382 | –
[1], x1 = 0.578 | 0.222 ± 0.00382 | –
[1], x1 = 0.5956 | 0.219 ± 0.00382 | –
[1], x1 = 0.6423 | 0.207 ± 0.00359 | –
[1], x1 = 0.6875 | 0.193 ± 0.00335 | –
[1], x1 = 0.7398 | 0.171 ± 0.00311 | –
[1], x1 = 0.7927 | 0.148 ± 0.00263 | –
[1], x1 = 0.8474 | 0.118 ± 0.00222 | –
[1], x1 = 0.9008 | 0.0823 ± 0.00167 | –
[1], x1 = 0.9546 | 0.0415 ± 0.00105 | –
[2], x1 = 0.0877 | – | 2.09e-07 ± 1.6e-08
[2], x1 = 0.1642 | – | 3.71e-07 ± 1.7e-08
[2], x1 = 0.2425 | – | 5.1e-07 ± 1.8e-08
[2], x1 = 0.3196 | – | 6.05e-07 ± 1.8e-08
[2], x1 = 0.3804 | – | 6.65e-07 ± 1.9e-08
[2], x1 = 0.4461 | – | 6.93e-07 ± 1.9e-08
[2], x1 = 0.5107 | – | 7.04e-07 ± 1.9e-08
[2], x1 = 0.5701 | – | 6.95e-07 ± 1.9e-08
[2], x1 = 0.6258 | – | 6.64e-07 ± 1.9e-08
[2], x1 = 0.6801 | – | 6.16e-07 ± 1.8e-08
[2], x1 = 0.7305 | – | 5.62e-07 ± 1.8e-08
[2], x1 = 0.7814 | – | 4.99e-07 ± 1.8e-08
[2], x1 = 0.8272 | – | 4.41e-07 ± 1.8e-08
[2], x1 = 0.8719 | – | 3.34e-07 ± 1.7e-08
[2], x1 = 0.9166 | – | 2.64e-07 ± 1.7e-08
[2], x1 = 0.9578 | – | 1.29e-07 ± 1.6e-08

CCC(=O)OC [methyl propanoate] + CCCCCCC
Details | excess molar enthalpy [kcal/mol] | excess molar volume [m3/mol]
[1], x1 = 0.0703 | 0.0855 ± 0.00174 | –
[1], x1 = 0.154 | 0.176 ± 0.00311 | –
[1], x1 = 0.2369 | 0.249 ± 0.0043 | –
[1], x1 = 0.3018 | 0.296 ± 0.00502 | –
[1], x1 = 0.3693 | 0.331 ± 0.0055 | –
[1], x1 = 0.4258 | 0.35 ± 0.00574 | –
[1], x1 = 0.4809 | 0.362 ± 0.00598 | –
[1], x1 = 0.5084 | 0.363 ± 0.00598 | –
[1], x1 = 0.5258 | 0.363 ± 0.00598 | –
[1], x1 = 0.5447 | 0.361 ± 0.00598 | –
[1], x1 = 0.586 | 0.353 ± 0.00598 | –
[1], x1 = 0.6301 | 0.34 ± 0.00574 | –
[1], x1 = 0.6752 | 0.32 ± 0.00526 | –
[1], x1 = 0.7232 | 0.295 ± 0.00502 | –
[1], x1 = 0.7744 | 0.259 ± 0.0043 | –
[1], x1 = 0.8241 | 0.215 ± 0.00382 | –
[1], x1 = 0.8704 | 0.168 ± 0.00311 | –
[1], x1 = 0.9177 | 0.112 ± 0.00217 | –
[1], x1 = 0.9639 | 0.0537 ± 0.00131 | –
[2], x1 = 0.0406 | – | 2.5e-07 ± 1.7e-08
[2], x1 = 0.0927 | – | 5.08e-07 ± 1.8e-08
[2], x1 = 0.1719 | – | 8.36e-07 ± 1.9e-08
[2], x1 = 0.248 | – | 1.063e-06 ± 2e-08
[2], x1 = 0.3249 | – | 1.222e-06 ± 2.1e-08
[2], x1 = 0.3904 | – | 1.27e-06 ± 2.1e-08
[2], x1 = 0.4571 | – | 1.288e-06 ± 2.1e-08
[2], x1 = 0.5214 | – | 1.254e-06 ± 2.1e-08
[2], x1 = 0.5761 | – | 1.192e-06 ± 2.1e-08
[2], x1 = 0.6333 | – | 1.105e-06 ± 2.1e-08
[2], x1 = 0.6853 | – | 1.008e-06 ± 2e-08
[2], x1 = 0.7372 | – | 9.01e-07 ± 2e-08
[2], x1 = 0.7844 | – | 7.75e-07 ± 1.9e-08
[2], x1 = 0.8305 | – | 6.37e-07 ± 1.8e-08
[2], x1 = 0.8748 | – | 4.85e-07 ± 1.8e-08
[2], x1 = 0.9184 | – | 3.36e-07 ± 1.7e-08
[2], x1 = 0.9596 | – | 1.83e-07 ± 1.6e-08

CCCCCCCCCCCCCCC [pentadecane] + CCOC(=O)CC
Details | excess molar enthalpy [kcal/mol] | excess molar volume [m3/mol]
[1], x2 = 0.1045 | 0.128 ± 0.00237 | –
[1], x2 = 0.2122 | 0.227 ± 0.00382 | –
[1], x2 = 0.3158 | 0.312 ± 0.00526 | –
[1], x2 = 0.4055 | 0.364 ± 0.00598 | –
[1], x2 = 0.4848 | 0.392 ± 0.00645 | –
[1], x2 = 0.5368 | 0.399 ± 0.00645 | –
[1], x2 = 0.5811 | 0.398 ± 0.00645 | –
[1], x2 = 0.6068 | 0.393 ± 0.00645 | –
[1], x2 = 0.6156 | 0.391 ± 0.00645 | –
[1], x2 = 0.6409 | 0.382 ± 0.00621 | –
[1], x2 = 0.6796 | 0.366 ± 0.00598 | –
[1], x2 = 0.7199 | 0.341 ± 0.00574 | –
[1], x2 = 0.761 | 0.313 ± 0.00526 | –
[1], x2 = 0.8036 | 0.273 ± 0.00454 | –
[1], x2 = 0.846 | 0.229 ± 0.00406 | –
[1], x2 = 0.8889 | 0.181 ± 0.00311 | –
[1], x2 = 0.9311 | 0.124 ± 0.00237 | –
[1], x2 = 0.9692 | 0.0613 ± 0.00148 | –
[2], x2 = 0.0586 | – | 2.35e-07 ± 1.7e-08
[2], x2 = 0.1287 | – | 4.67e-07 ± 1.8e-08
[2], x2 = 0.2483 | – | 8.47e-07 ± 1.9e-08
[2], x2 = 0.3372 | – | 1.053e-06 ± 2e-08
[2], x2 = 0.4269 | – | 1.184e-06 ± 2.1e-08
[2], x2 = 0.502 | – | 1.246e-06 ± 2.1e-08
[2], x2 = 0.5673 | – | 1.252e-06 ± 2.1e-08
[2], x2 = 0.6288 | – | 1.223e-06 ± 2.1e-08
[2], x2 = 0.6845 | – | 1.156e-06 ± 2.1e-08
[2], x2 = 0.7304 | – | 1.087e-06 ± 2.1e-08
[2], x2 = 0.7744 | – | 9.92e-07 ± 2e-08
[2], x2 = 0.8148 | – | 8.88e-07 ± 2e-08
[2], x2 = 0.8537 | – | 7.69e-07 ± 1.9e-08
[2], x2 = 0.8864 | – | 6.38e-07 ± 1.8e-08
[2], x2 = 0.919 | – | 5.21e-07 ± 1.8e-08
[2], x2 = 0.9481 | – | 3.55e-07 ± 1.7e-08
[2], x2 = 0.9742 | – | 1.89e-07 ± 1.6e-08

CCCCCCCCCCCCC [tridecane] + CCC(=O)OC
Details | excess molar enthalpy [kcal/mol] | excess molar volume [m3/mol]
[1], x2 = 0.1102 | 0.152 ± 0.00263 | –
[1], x2 = 0.2079 | 0.264 ± 0.00454 | –
[1], x2 = 0.298 | 0.349 ± 0.00574 | –
[1], x2 = 0.3751 | 0.407 ± 0.00669 | –
[1], x2 = 0.4404 | 0.44 ± 0.00717 | –
[1], x2 = 0.4912 | 0.457 ± 0.00741 | –
[1], x2 = 0.5388 | 0.465 ± 0.00765 | –
[1], x2 = 0.5843 | 0.466 ± 0.00765 | –
[1], x2 = 0.624 | 0.459 ± 0.00741 | –
[1], x2 = 0.6309 | 0.456 ± 0.00741 | –
[1], x2 = 0.6687 | 0.44 ± 0.00717 | –
[1], x2 = 0.7093 | 0.414 ± 0.00669 | –
[1], x2 = 0.7493 | 0.382 ± 0.00621 | –
[1], x2 = 0.7925 | 0.336 ± 0.0055 | –
[1], x2 = 0.8368 | 0.283 ± 0.00478 | –
[1], x2 = 0.8813 | 0.224 ± 0.00382 | –
[1], x2 = 0.9269 | 0.152 ± 0.00287 | –
[1], x2 = 0.9664 | 0.0759 ± 0.00172 | –
[2], x2 = 0.0687 | – | 3.33e-07 ± 1.7e-08
[2], x2 = 0.1431 | – | 6.43e-07 ± 1.8e-08
[2], x2 = 0.2538 | – | 1.057e-06 ± 2e-08
[2], x2 = 0.3537 | – | 1.323e-06 ± 2.2e-08
[2], x2 = 0.4366 | – | 1.462e-06 ± 2.2e-08
[2], x2 = 0.5144 | – | 1.543e-06 ± 2.3e-08
[2], x2 = 0.5811 | – | 1.548e-06 ± 2.3e-08
[2], x2 = 0.6387 | – | 1.514e-06 ± 2.3e-08
[2], x2 = 0.6932 | – | 1.429e-06 ± 2.2e-08
[2], x2 = 0.7403 | – | 1.32e-06 ± 2.2e-08
[2], x2 = 0.7836 | – | 1.217e-06 ± 2.1e-08
[2], x2 = 0.8229 | – | 1.075e-06 ± 2e-08
[2], x2 = 0.8583 | – | 9.26e-07 ± 2e-08
[2], x2 = 0.8914 | – | 7.83e-07 ± 1.9e-08
[2], x2 = 0.9212 | – | 6.29e-07 ± 1.8e-08
[2], x2 = 0.9596 | – | 4.05e-07 ± 1.7e-08
[2], x2 = 0.9748 | – | 2.5e-07 ± 1.7e-08
